{
  "source": "patent US12636274B2",
  "about": "“Pharmaceutical compositions and methods for systemic treatment of solid tumors” (7 HILLS INTERESTS LLC, priority 2014, dated 2026)",
  "key": {"[1]": {"tested_on": "CT26 colon cancer syngeneic tumor", "assay": "Study 3: CT26 syngeneic tumor model in Balb/c mice, treatment from +1 day after implantation", "assay_type": "in vivo, Mouse (Mus musculus)", "protocol": "Mouse colon carcinoma CT26 cells were obtained from American Type Culture Collection (ATCC), USA. Cells were grown in RPMI-1640 medium (Sigma, Cat # R6504) supplemented with 10% FBS (Invitrogen, Cat #10438-026), and 1% penicillin streptomycin (Thermo Fisher Scientific, Cat #15140-122). To establish allografts, 1 million CT26 cells were suspended in 50 μL of serum-free medium and mixed at 1:1 ratio with matrigel before implanting subcutaneously into the right flank of mice.\nPrior to inoculation, the skin on the injection site was swabbed with alcohol. To establish allografts, CT26 cells were suspended in serum free medium at a concentration of (1×10^6)/50 μL, mixed with equal volume of matrigel (1:1 ratio) and 100 μL of this mixture was injected to each mouse by subcutaneous implantation using a 1 mL BD syringe attached to a 24 gauge needle.\nCT26 tumor xenografts were measured after approximately 1 week of cell inoculation when they become palpable. When the average tumor volume reaches around 110 mm^3, animals were randomized into treatment groups group maintaining the average tumor volume of each group similar across groups for Study 1 and Study 2. In Study 3, the animals were randomized on the basis of body weights +1 day post cell implantation.\nTumor dimensions (length and breadth) were measured on days 0 (animal randomization based on tumor volume) and thrice weekly thereafter until study termination. Tumor volumes were calculated using the formula (b^2*l)*0.52 where l=length, b=breadth (Dusan Djokovic et al., BMC Cancer, 2010, 10:641). Tumor growth inhibition was calculated after normalizing the tumor volume on a given day to that on day 1.\nMean body weight loss and percent changes were calculated for each group. Similarly, mean tumor volume and percent tumor growth inhibition were calculated. The percent tumor growth inhibition (% TGI) as a function of anti-tumor efficacy were computed with respect to untreated vehicle control by comparing to the tumor volumes of day 1 using formula described below: % TGI=[1−(Treatment TVFinal−Treatment TVInitial)/(Control TVFinal−Control TVInitial)]*100\nThe test agent, Compound 1 was evaluated in CT26 syngeneic tumor model in Balb/c mice. Compound 1 was administered in mice +1 day after CT26 cell implantation. Tumors were not measurable at this time, however, tumors became palpable on day 7 and tumors were measured from that point."}, "VLA-4/VCAM-1": {"biological_target": "VLA-4/VCAM-1 (Homo sapiens, UniProt P05556+P13612)", "sequence (P13612 34-1032)": "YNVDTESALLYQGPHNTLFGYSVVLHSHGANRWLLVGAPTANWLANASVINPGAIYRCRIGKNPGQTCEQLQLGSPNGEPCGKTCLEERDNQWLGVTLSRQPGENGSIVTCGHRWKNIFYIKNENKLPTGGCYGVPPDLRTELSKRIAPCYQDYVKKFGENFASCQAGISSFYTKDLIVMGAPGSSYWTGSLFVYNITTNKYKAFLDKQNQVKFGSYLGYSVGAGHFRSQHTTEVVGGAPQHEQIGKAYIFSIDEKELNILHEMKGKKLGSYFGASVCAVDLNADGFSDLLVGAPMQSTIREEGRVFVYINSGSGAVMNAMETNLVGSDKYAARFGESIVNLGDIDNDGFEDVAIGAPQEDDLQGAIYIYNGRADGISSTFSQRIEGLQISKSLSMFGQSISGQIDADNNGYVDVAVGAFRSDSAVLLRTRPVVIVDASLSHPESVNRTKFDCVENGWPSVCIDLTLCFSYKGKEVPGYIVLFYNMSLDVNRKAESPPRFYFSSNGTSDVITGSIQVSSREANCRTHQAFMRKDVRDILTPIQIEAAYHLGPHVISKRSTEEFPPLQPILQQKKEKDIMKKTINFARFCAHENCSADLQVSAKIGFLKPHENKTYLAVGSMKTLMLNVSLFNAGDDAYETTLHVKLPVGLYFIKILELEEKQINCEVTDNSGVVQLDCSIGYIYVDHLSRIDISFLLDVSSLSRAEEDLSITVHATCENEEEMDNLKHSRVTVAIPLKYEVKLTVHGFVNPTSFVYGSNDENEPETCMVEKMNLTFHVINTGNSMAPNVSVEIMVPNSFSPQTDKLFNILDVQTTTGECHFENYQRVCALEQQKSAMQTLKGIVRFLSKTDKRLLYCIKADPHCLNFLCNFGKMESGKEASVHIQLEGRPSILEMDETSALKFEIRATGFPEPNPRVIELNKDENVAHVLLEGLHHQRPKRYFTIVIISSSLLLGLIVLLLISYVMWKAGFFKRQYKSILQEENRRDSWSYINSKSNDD", "sequence (P05556 21-798)": "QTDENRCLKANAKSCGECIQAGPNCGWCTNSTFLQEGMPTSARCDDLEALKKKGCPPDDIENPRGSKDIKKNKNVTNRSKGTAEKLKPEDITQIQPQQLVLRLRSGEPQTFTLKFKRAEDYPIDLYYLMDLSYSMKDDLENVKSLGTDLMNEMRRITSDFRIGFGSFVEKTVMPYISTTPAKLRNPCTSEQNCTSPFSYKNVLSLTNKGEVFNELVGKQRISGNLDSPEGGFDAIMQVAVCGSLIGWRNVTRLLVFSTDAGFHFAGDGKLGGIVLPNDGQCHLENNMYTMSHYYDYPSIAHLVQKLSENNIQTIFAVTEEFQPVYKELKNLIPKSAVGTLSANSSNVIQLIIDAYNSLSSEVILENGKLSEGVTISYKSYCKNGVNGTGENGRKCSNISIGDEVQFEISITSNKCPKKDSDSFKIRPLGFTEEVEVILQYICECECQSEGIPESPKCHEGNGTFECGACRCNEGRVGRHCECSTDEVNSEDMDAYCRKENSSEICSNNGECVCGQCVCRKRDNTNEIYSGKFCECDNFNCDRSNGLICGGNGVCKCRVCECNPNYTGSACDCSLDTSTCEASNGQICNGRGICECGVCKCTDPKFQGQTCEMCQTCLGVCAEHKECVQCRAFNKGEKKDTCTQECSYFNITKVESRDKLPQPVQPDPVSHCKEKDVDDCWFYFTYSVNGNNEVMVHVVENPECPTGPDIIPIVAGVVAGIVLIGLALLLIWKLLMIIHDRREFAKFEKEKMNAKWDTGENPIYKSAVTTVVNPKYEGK", "assay": "VLA-4 (α4β1) dependent cell adhesion to VCAM-1", "assay_type": "cell-based", "conditions": "FIG. 3; VCAM-1 and Cmpd 1 versus BSA, VCAM-1 alone, Ig and anti-integrin antibodies", "source_text": "Referring now to FIG. 3, a histogram is shown of induced VLA-4 (α4β1) dependent cell adhesion to VCAM-1 in the presence of BSA, VCAM-1, VCAM-1 and a compound of Formula (I) (Cmpd 1), Ig, anti-α4, anti-αL, anti-β1, and anti-β2.\nActivating all integrins is necessary for firm endothelial cell adhesion for extravasation."}},
  "data": [
    {"smiles": "O=C(OCCOCCOCCOC(=O)N(Cc1cccs1)Cc1cccs1)N(Cc1cccs1)Cc1cccs1", "note": "[Compound 1, 3-oxo-1-(2-thienyl)-2-(2-thienylmethyl)-4,7,10-trioxa-2-azadodecan-12-yl bis(2-thienylmethyl)carbamate]", "values": [
      {"measurement": "Average Tumor Volume, Mean", "setting": "[1]; 1 mg/kg BID (IP), Day 7", "value": 91, "unit": "mm^3"},
      {"measurement": "Average Tumor Volume, Mean", "setting": "[1]; 1 mg/kg BID (IP), Day 10", "value": 159, "unit": "mm^3"},
      {"measurement": "Average Tumor Volume, Mean", "setting": "[1]; 1 mg/kg BID (IP), Day 12", "value": 269, "unit": "mm^3"},
      {"measurement": "Average Tumor Volume, Mean", "setting": "[1]; 1 mg/kg BID (IP), Day 14", "value": "342^‡ mm^3"},
      {"measurement": "Average Tumor Volume, Mean", "setting": "[1]; 1 mg/kg BID (IP), Day 16", "value": "512^‡‡ mm^3"},
      {"measurement": "Average Tumor Volume, Mean", "setting": "[1]; 1 mg/kg BID (IP), Day 18", "value": "689^‡‡ mm^3"},
      {"measurement": "Average Tumor Volume, Mean", "setting": "[1]; 1 mg/kg IP QD, Day 7", "value": 96, "unit": "mm^3"},
      {"measurement": "Average Tumor Volume, Mean", "setting": "[1]; 1 mg/kg IP QD, Day 10", "value": 193, "unit": "mm^3"},
      {"measurement": "Average Tumor Volume, Mean", "setting": "[1]; 1 mg/kg IP QD, Day 12", "value": 312, "unit": "mm^3"},
      {"measurement": "Average Tumor Volume, Mean", "setting": "[1]; 1 mg/kg IP QD, Day 14", "value": "415^† mm^3"},
      {"measurement": "Average Tumor Volume, Mean", "setting": "[1]; 1 mg/kg IP QD, Day 16", "value": "566^†† mm^3"},
      {"measurement": "Average Tumor Volume, Mean", "setting": "[1]; 1 mg/kg IP QD, Day 18", "value": "768^‡ mm^3"},
      {"measurement": "inhibition in tumor volume (TGI)", "setting": "[1]; IP BID (1 mg/kg), day 14, p<0.01", "value": 57.6, "unit": "%"},
      {"measurement": "inhibition in tumor volume (TGI)", "setting": "[1]; IP QD (1 mg/kg), day 14, p<0.05", "value": 46.1, "unit": "%"},
      {"measurement": "bound cells, adhesion to VCAM-1", "setting": "VLA-4/VCAM-1", "value": "highest bound cells"}
    ]}
  ]
}
